A short description of the data set: Apparent pKa of ionizable cationic lipid. Format: physicochemical.

For the compound `CCCCCCCCC1CC1CCCCCCCCC(CCCCCCCCC1CC1CCCCCCCC)OC(=O)CCCN(C)C` (stereo not shown) [Cationic Lipid A, 1,17-bis(2-octylcyclopropyl)heptadecan-9-yl-4-(dimethylamino)butanoate], the pKa was found to be 6.3.

For the origin of these results see patent US10342760B2, “Lipid nanoparticles for transfection and related methods” (The University of British Columbia, priority 2013, dated 2019).
